Reference: patent publication US20230279004A1, “SOLID FORMS, SALTS, AND PROCESSES OF PREPARATION OF A CDK2 INHIBITOR” (Incyte Corporation, priority 2022, published 2023)
Marks after values point to notes of the source that are not given here. Each block holds one compound with its values, some of them ahead of it.

Assays:
CDK2/Cyclin E1 = target: T1, CDK2/Cyclin E1 (Homo sapiens, UniProt P24941); test: CDK2/Cyclin E1 HTRF enzyme activity assay; assay type: biochemical; conditions: 1 mM ATP
T1 construct: full-length human CDK2; GST (N); purchased Carna 04-165; host or cells: baculovirus expression system
Description: CDK2/Cyclin E1 enzyme activity assays utilize full-length human CDK2 co-expressed as N-terminal GST-tagged protein with FLAG-Cyclin E1 in a baculovirus expression system (Carna Product Number 04-165). Assays were conducted in white 384-well polystyrene plates in a final reaction volume of 8 μL. CDK2/Cyclin E1 (0.25 nM) was incubated with the compounds of the Examples (40 nL serially diluted in DMSO) in the presence of ATP (50 μM or 1 mM) and 50 nM ULight™-labeled eIF4E-binding protein 1 (THR37/46) peptide (PerkinElmer) in assay buffer (containing 50 mM HEPES pH 7.5, 1 mM EGTA, 10 mM MgCl2, 2 mM DTT, 0.05 mg/mL BSA, and 0.01% Tween 20) for 60 minutes at room temperature. The reactions were stopped by the addition of EDTA and Europium-labeled anti-phospho-4E-BP1 antibody (PerkinElmer), for a final concentration of 15 mM and 1.5 nM, respectively. HTRF signals were read after 1 hour at room temperature on a PHERAstar FS plate reader (BMG Labtech). Data was analyzed with IDBS XLFit and GraphPad Prism 5.0 software using a three or four parameter dose response curve to determine IC50 for each compound.

[1] = Solid form change on heating (DSC); assay type: physicochemical
Description: The DSC was obtained from TA Instruments Differential Scanning Calorimetry, Discovery DSC2500 with autosampler. The DSC instrument conditions were as follows: 20-300° C. at 10° C./min; Tzero aluminum sample pan and lid; and nitrogen gas flow at 50 mL/min.
When comparing the DSC of Form I and Form II, it was observed that Form II solids contained two peaks (FIG. 23), with the latter peak onset (≈191.0° C.) and Tmax (193.4° C.) similar to the peak onset and Tmax of Form I (FIG. 2).
The residual solvent could not be removed by conventional drying methods. […] The stoichiometric ratio of the compound of Formula (I) and 1,4-dioxane could be 4:1. The DSC of the solid (FIG. 26) contained a peak onset latter peak onset (≈192.6° C.) and Tmax (194.3° C.), which are similar to the peak onset (191.3° C.) and Tmax (193.3° C.) of Form I (FIG. 2).

[2] = Phase equilibration (XRPD of equilibrated solid); assay type: physicochemical; conditions: Form I stirred at 25° C. for 48 hours or 50° C. for 24 hours, all solvents tested (Table 9)
Description: Phase equilibration studies were conducted to identify a predominant crystal form for phase identification. Based on its solubility in various solvent systems (Table 8), the compound of Formula (I) Form I was equilibrated in a representative groups of solvents at 25±1° C. and 50±1° C. To the solvents, the compound of Formula (I) Form I was added until a cloudy solution was obtained, then approximately 20 mg of the compound of Formula (I) Form I was added to the cloudy solution. The mixture was stirred at 25±1° C. or 50±1° C. for 48 hours or 24 hours, respectively. The solid was filtered, dried in vacuum, and analyzed by XRPD.

[3] = Solubility measurement in various solvents (HPLC); assay type: physicochemical; conditions: for Solubility (25° C.) / solubility at 48 h: 48 h; for Solubility (50° C.) / solubility at 24 h: 24 h; for solubility at 48 h: 25 °C; for solubility at 48 h / solubility at 24 h: organic solvent or mixture; for solubility at 24 h: 50 °C
Description: 5 mL of solvent (see Table 8) was added to the individual vials. The compound of Formula (I) Form I was added to the vials to get a cloudy solution at 25° C. Another approximately 20 mg of the compound of Formula (I) Form I was added to the cloudy solution. The mixture was agitated at 25±1° C. for 48 h, which was controlled by IKA® ETS-D5 temperature controller and IKA® RCT basic safety control. The supernatant was filtered using a syringe filter (0.22 μm). The saturated solution was pipetted into HPLC vials and diluted with MeOH or acetone.
The solubility measurement at 50° C. was performed according to the following procedure. 5 mL of solvent (see Table 8) was added to the individual vials. The compound of Formula (I) Form I was added to the vials to get a cloudy solution at 50° C. Another approximately 20-25 mg of the compound of Formula (I) Form I was added. The mixture was agitated at 50±1° C. for 24 h, which was controlled by IKA® ETS-D5 temperature controller and IKA® RCT basic safety control. The supernatant was filtered quickly using a warmed syringe filter (0.22 μm) at 50±1° C. The saturated solution was pipetted into HPLC vials and diluted with MeOH or acetone.

[4] = 1,4-dioxane, thermodynamic from solid, 1,4-Dioxane
[5] = 2-methoxyethanol, thermodynamic from solid
[6] = chloroform, thermodynamic from solid
[7] = dimethylformamide, thermodynamic from solid
[8] = iso-butyl acetate, thermodynamic from solid
[9] = methyl ethyl ketone, thermodynamic from solid
[10] = tetrahydrofuran (THF), thermodynamic from solid

IC50 (CDK2/Cyclin E1): ≤ 20 nM
Structure (SMILES): CCOc1c(-c2cn[nH]c2)ccn2nc(N[C@H]3CCN(S(C)(=O)=O)C[C@H]3C)nc12 [Compound of Formula (I), 8-ethoxy-N-((3R,4S)-3-methyl-1-(methylsulfonyl)piperidin-4-yl)-7-(1H-pyrazol-4-yl)-[1,2,4]triazolo[1,5-a]pyridin-2-amine]

Solid form change during the heating process [1]: changed to Form I
Structure (SMILES): CCOc1c(-c2cn[nH]c2)ccn2nc(N[C@H]3CCN(S(C)(=O)=O)C[C@H]3C)nc12 [Form II, 8-ethoxy-N-((3R,4S)-3-methyl-1-(methylsulfonyl)piperidin-4-yl)-7-(1H-pyrazol-4-yl)-[1,2,4]triazolo[1,5-a]pyridin-2-amine]

Crystalline form for phase equilibration [2]: crystalline Form I
Solubility (25° C.) ([3]; 1,4-Dioxane): >50* mg/mL
Solubility (50° C.) ([3]; 1,4-Dioxane, 50° C.): >50* mg/mL
solubility at 48 h [3, 4]: > 50 mg/mL
solubility at 24 h [3, 4]: > 50 mg/mL
Solubility (50° C.) ([3]; 2-Me THF/H2O/Heptane (1:1.5%:1), 50° C.): 0.6 mg/mL
solubility at 24 h ([3]; 2-Me THF/H2O/heptane (1:1.5%:1), thermodynamic from solid, 2-Me THF/H2O/Heptane (1:1.5%:1), 50° C.): < 1 mg/mL
Solubility (25° C.) ([3]; 2-Methoxyethanol): >50* mg/mL
Solubility (50° C.) ([3]; 2-Methoxyethanol, 50° C.): >50* mg/mL
Solubility (50° C.) ([3]; 2-Methyl THF, 50° C.): 18.7 mg/mL
solubility at 48 h [3, 5]: > 50 mg/mL
solubility at 24 h [3, 5]: > 50 mg/mL
solubility at 24 h ([3]; 2-methyl THF, thermodynamic from solid): 15 to 50 mg/mL
Solubility (50° C.) ([3]; 3% water in EtOH, 50° C.): 20.0 mg/mL
solubility at 24 h ([3]; 3% water in EtOH, thermodynamic from solid): 15 to 50 mg/mL
Solubility (25° C.) ([3]; Chloroform): >50* mg/mL
Solubility (50° C.) ([3]; Chloroform, 50° C.): >50* mg/mL
Solubility (25° C.) ([3]; DMSO): >50* mg/mL
solubility at 48 h ([3]; DMSO, thermodynamic from solid): > 50 mg/mL
Solubility (50° C.) ([3]; DMSO, 50° C.): >50* mg/mL
solubility at 24 h ([3]; DMSO, thermodynamic from solid): > 50 mg/mL
Solubility (25° C.) ([3]; Dichloromethane): 18.5 mg/mL
Solubility (25° C.) ([3]; Dimethylformamide): >50* mg/mL
Solubility (50° C.) ([3]; Dimethylformamide, 50° C.): >50* mg/mL
Solubility (50° C.) ([3]; EtOH, 50° C.): 15.7 mg/mL
solubility at 24 h ([3]; EtOH, thermodynamic from solid): 15 to 50 mg/mL
Solubility (50° C.) ([3]; Ethyl formate, 50° C.): 15.2 mg/mL
Solubility (25° C.) ([3]; MeOH): 18.7 mg/mL
solubility at 48 h ([3]; MeOH, thermodynamic from solid): 15 to 50 mg/mL
Solubility (25° C.) ([3]; Methyl ethyl ketone): 15.9 mg/mL
Solubility (50° C.) ([3]; Methyl ethyl ketone, 50° C.): 25.3 mg/mL
Solubility (25° C.) ([3]; Tetrahydrofuran (THF)): >50* mg/mL
Solubility (50° C.) ([3]; Tetrahydrofuran (THF), 50° C.): >50* mg/mL
Solubility (50° C.) ([3]; Toluene, 50° C.): 0.5 mg/mL
solubility at 48 h [3, 6]: > 50 mg/mL
solubility at 24 h [3, 6]: > 50 mg/mL
solubility at 48 h ([3]; dichloromethane, thermodynamic from solid): 15 to 50 mg/mL
solubility at 48 h [3, 7]: > 50 mg/mL
solubility at 24 h [3, 7]: > 50 mg/mL
solubility at 24 h ([3]; ethyl formate, thermodynamic from solid): 15 to 50 mg/mL
Solubility (25° C.) ([3]; iso-Butyl acetate): 1.1 mg/mL
Solubility (50° C.) ([3]; iso-Butyl acetate, 50° C.): 1.6 mg/mL
Solubility (25° C.) ([3]; iso-Propyl acetate): 1.8 mg/mL
solubility at 48 h [3, 8]: 1 to 15 mg/mL
solubility at 24 h [3, 8]: 1 to 15 mg/mL
solubility at 48 h ([3]; iso-propyl acetate, thermodynamic from solid): 1 to 15 mg/mL
solubility at 48 h [3, 9]: 15 to 50 mg/mL
solubility at 24 h [3, 9]: 15 to 50 mg/mL
solubility at 48 h [3, 10]: > 50 mg/mL
solubility at 24 h [3, 10]: > 50 mg/mL
solubility at 24 h ([3]; toluene, thermodynamic from solid): < 1 mg/mL
Structure (SMILES): CCOc1c(-c2cn[nH]c2)ccn2nc(N[C@H]3CCN(S(C)(=O)=O)C[C@H]3C)nc12 [compound of Formula (I) Form I, 8-ethoxy-N-((3R,4S)-3-methyl-1-(methylsulfonyl)piperidin-4-yl)-7-(1H-pyrazol-4-yl)-[1,2,4]triazolo[1,5-a]pyridin-2-amine]
